The numbers were not newly measured in EP0349956A1, “Azacyclic compounds and their preparation und use” (NOVO NORDISK A/S, priority 1988, dated 1990), which cites them from elsewhere.

This data set addresses muscarinic receptor in the CNS.

Read-outs that look alike come from different tables or passages of the source.

In the case of ³H-Oxotremorine-M, the Kd was 1.8 nM (first of three different sites labelled by ³H-Oxo (high affinity)); 20 nM (second of three different sites labelled by ³H-Oxo (medium affinity)); 3000 nM (third of three different sites labelled by ³H-Oxo (not determined under the present conditions), read-out: affinity).
